In patent publication US20100190849A1, “Novel Clerodanes and Methods for Repelling Arthropods” (priority 2006, published 2010):
Marks after values point to notes of the source that are not given here.

Legend:
Type in all cases: in vivo
[1] = tested on: hybrid (S. invicta×S. richteri); assay: Two-choice digging bioassay, head-to-head against octanoic acid; details: 25.00 ppm, FIG. 3
Experimental: (§1) The repellency of the two terpenoids, callicarpenal and intermedeol, against workers of red imported fire ants, Solenopsis invicta Buren, black imported fire ants, Solenopsis rickeri Forel, and a hybrid of these two species was evaluated using multiple-choice digging bioassays (Tables 9 & 10). […] Callicarpenal and intermedeol were compared with octanoic acid, a known fire ant repellant, at the 25.00 ppm level using two-choice digging bioassays (FIGS. 3 and 4).
Head-to-head comparison on repellency of callicarpenal and intermedeol against octanoic acid: The bioassay apparatus was similar as described above, except a smaller Petri dish (8.7×2.3 cm) was used and only two choices were presented: one was sand treated with callicarpenal or intermedeol and the other with octanoic acid. Two choices were opposite each other across the center of the Petri dish and each was 3.0 cm away from the center. All compounds were tested at a 25.00 ppm level. Sand preparation was similar as described above. Ants from the same colonies as above were used in this experiment. There were five replications for each pair of comparisons. A paired t-test (critical P-value=0.05) was used to compare the mean amount of sand removed between two tubes.

[2] = tested on: black imported fire ants, Solenopsis richteri Forel; assay: Multiple-choice digging bioassay, fire ant workers
Experimental: as §1
(§2) Ants: Two Solenopsis invicta colonies were collected in Sharkey County, Mississippi, and two Solenopsis richteri colonies were collected in Granada County, Mississippi. Two colonies of the hybrid (S. invicta×S. richteri) colony were collected in Sunflower County, Mississippi. Fire ant mounds were shoveled and placed in 19-L plastic buckets. The inside wall of the bucket was then coated with baby powder (Cumberland Swan Holdings, Inc., Smyrna, Tenn.) to prevent ant escape. Following the water-drip method developed by Bank et al. (Banks, W. A., et al., Techniques for collecting, rearing, and handling imported fire ants, USDA SEA AATS-S-21 (1981)), ants were separated and then placed in a 44.5×60.0×13.0 cm plastic tray with inside walls coated with Fluon® (Ag Fluoropolymers, Chadds Ford, Pa.). Distilled water and 15% (w/v) sucrose water solution in separated test tubes which were plugged with cotton balls were placed in the trays. Heliocoverpa zea (Boddie) and tobacco budworm, Heliothis virescens (Fabricius) pupae were used as food sources. Inside each tray were one to three 14.0×2.0 cm Petri dishes with 1.0 cm of hardener dental plaster (Castone®; Dentsply International Inc. York, Pa.) on the bottom. Also, in the center of the Petri dish was a 5.0-cm diameter brood chamber. Two 8-mm access holes were made on the wall of the petri dish above the dental plaster. The Petri dish lid was painted black (1302 Gloss Black Spray Enamel, Louisville, Ky.)to block the light. All colonies were maintained at 22-25° C.
(§3) Fire ant workers dug and removed sand from the tube through the entry hole. The differences in the amount of removed sand among treated and control tubes were used to evaluate chemical repellency. Four 2 ml centrifuge tubes were mounted under a 14.0×2.3 cm Petri dish using glue (Arrow Fastener Co., inc., Saddle Brook, N.J.). Tubes were 5.0 cm away from the center of the Petri dish and at equal distance from each other. A 3-mm diameter access hole was drilled for each centrifuge tube, which went through the bottom of the Petri dish and the cap of the tube. The inner side of the Petri dish was coated with Fluon. Three concentrations of a test compound and one control were set up in each apparatus. Six concentrations, including […], 6.25, 12.50, and 25.00 ppm, were tested in two separated bioassays for each species and hybrid; however three more concentrations of callicarpenal, 50.00, 100.00, and […], were tested for S. invicta. Sand (Premium Play Sand, Plassein International, Longview, Tex.) was first sieved through a ™35 U.S.A. standard testing sieve (Thomas Scientific, Swedesboro, N.J.) and then washed with distilled water and dried at 350° C. for 12 h. A 3 ml dichloromethane solution of callicarpenal or intermedeol was mixed with 30 g sand in an aluminum pan. The sand was stirred every 2 min to facilitate the evaporation of the solvent under a fume hood. After dichloromethane evaporated (5 minutes), 1.92 ml distilled water was added and mixed with sand. Sand in the control tube was treated only with dichloromethane. In each tube a mean (±SD) 2.78 g (±0.06 g) wet sand was added. There was no open space inside the tube. Locations of each concentration were randomized. Fifty fire ant workers were introduced into the center of the Petri Dish. The experiment was conducted at 22±0.8° C. (mean±SD) temperature and 45.4%±11.87% relative humidity. After 24 h, sand in each vial was collected, dried at 150° C. for at least 4 hour, and weighed. […]

[3] = tested on: hybrid (S. invicta×S. richteri); assay: Multiple-choice digging bioassay, fire ant workers
Experimental: as §1, §2, §3

[4] = tested on: red imported fire ants, Solenopsis invicta Buren; assay: Multiple-choice digging bioassay, fire ant workers
Experimental: as §1, §2, §3

CC1=CCC[C@@H]2[C@@](C)(CC=O)[C@H](C)CC[C@@]12C [callicarpenal, 13,14,15,16-tetranorclerod-3-en-12-al]
repellency compared with octanoic acid (in words) ([1]; one hybrid colony): significantly greater repellency than octanoic acid
repellency compared with octanoic acid (in words) ([1]; the other hybrid colony): no significant difference
Sand removed (SE), mean weight of sand removed by ants 24 h after release ([2]; S. richteri colony 1, Exp. 7, 0.75 ppm): 0.40 (0.16) g
Sand removed (SE), mean weight of sand removed by ants 24 h after release ([2]; S. richteri colony 1, Exp. 7, 1.50 ppm): 0.28 (0.12) g
Sand removed (SE), mean weight of sand removed by ants 24 h after release ([2]; S. richteri colony 1, Exp. 7, 3.15 ppm): 0.21 (0.13) g
Sand removed (SE), mean weight of sand removed by ants 24 h after release ([2]; S. richteri colony 1, Exp. 8, 6.25 ppm): 0.10 (0.04)* g
Sand removed (SE), mean weight of sand removed by ants 24 h after release ([2]; S. richteri colony 1, Exp. 8, 12.50 ppm): 0.40 (0.17)* g
Sand removed (SE), mean weight of sand removed by ants 24 h after release ([2]; S. richteri colony 1, Exp. 8, 25.00 ppm): 0.08 (0.04)* g
Sand removed (SE), mean weight of sand removed by ants 24 h after release ([2]; S. richteri colony 2, Exp. 9, 0.75 ppm): 0.27 (0.16) g
Sand removed (SE), mean weight of sand removed by ants 24 h after release ([2]; S. richteri colony 2, Exp. 9, 1.50 ppm): 0.85 (0.22) g
Sand removed (SE), mean weight of sand removed by ants 24 h after release ([2]; S. richteri colony 2, Exp. 9, 3.15 ppm): 0.17 (0.11) g
Sand removed (SE), mean weight of sand removed by ants 24 h after release ([2]; S. richteri colony 2, Exp. 10, 6.25 ppm): 0.10 (0.04)* g
Sand removed (SE), mean weight of sand removed by ants 24 h after release ([2]; S. richteri colony 2, Exp. 10, 12.50 ppm): 0.10 (0.04)* g
Sand removed (SE), mean weight of sand removed by ants 24 h after release ([2]; S. richteri colony 2, Exp. 10, 25.00 ppm): 0.01 (0.002)* g
Sand removed (SE), mean weight of sand removed by ants 24 h after release ([3]; Hybrid colony 1, Exp. 11, 0.75 ppm): 0.66 (0.09) g
Sand removed (SE), mean weight of sand removed by ants 24 h after release ([3]; Hybrid colony 1, Exp. 11, 1.50 ppm): 0.59 (0.10) g
Sand removed (SE), mean weight of sand removed by ants 24 h after release ([3]; Hybrid colony 1, Exp. 11, 3.15 ppm): 0.30 (0.11) g
Sand removed (SE), mean weight of sand removed by ants 24 h after release ([3]; Hybrid colony 1, Exp. 12, 6.25 ppm): 0.53 (0.13)* g
Sand removed (SE), mean weight of sand removed by ants 24 h after release ([3]; Hybrid colony 1, Exp. 12, 12.50 ppm): 0.26 (0.05)* g
Sand removed (SE), mean weight of sand removed by ants 24 h after release ([3]; Hybrid colony 1, Exp. 12, 25.00 ppm): 0.39 (0.14)* g
Sand removed (SE), mean weight of sand removed by ants 24 h after release ([3]; Hybrid colony 2, Exp. 13, 0.75 ppm): 0.53 (0.14) g
Sand removed (SE), mean weight of sand removed by ants 24 h after release ([3]; Hybrid colony 2, Exp. 13, 1.50 ppm): 0.36 (0.09) g
Sand removed (SE), mean weight of sand removed by ants 24 h after release ([3]; Hybrid colony 2, Exp. 13, 3.15 ppm): 0.58 (0.12) g
Sand removed (SE), mean weight of sand removed by ants 24 h after release ([3]; Hybrid colony 2, Exp. 14, 6.25 ppm): 0.47 (0.09)* g
Sand removed (SE), mean weight of sand removed by ants 24 h after release ([3]; Hybrid colony 2, Exp. 14, 12.50 ppm): 0.30 (0.11)* g
Sand removed (SE), mean weight of sand removed by ants 24 h after release ([3]; Hybrid colony 2, Exp. 14, 25.00 ppm): 0.21 (0.11)* g
concentration at which significant repellency was shown ([3]; hybrid, two colonies, in sand, 24 h): ≥ 6.25 ppm
Sand removed (SE), mean weight of sand removed by ants 24 h after release ([4]; S. invicta colony 1, Exp. 1, 0.75 ppm): 0.19 (0.07) g
Sand removed (SE), mean weight of sand removed by ants 24 h after release ([4]; S. invicta colony 1, Exp. 1, 1.50 ppm): 0.24 (0.15) g
Sand removed (SE), mean weight of sand removed by ants 24 h after release ([4]; S. invicta colony 1, Exp. 1, 3.15 ppm): 0.40 (0.20) g
Sand removed (SE), mean weight of sand removed by ants 24 h after release ([4]; S. invicta colony 1, Exp. 2, 6.25 ppm): 0.21 (0.12) g
Sand removed (SE), mean weight of sand removed by ants 24 h after release ([4]; S. invicta colony 1, Exp. 2, 12.50 ppm): 0.48 (0.19) g
Sand removed (SE), mean weight of sand removed by ants 24 h after release ([4]; S. invicta colony 1, Exp. 2, 25.00 ppm): 0.08 (0.05) g
Sand removed (SE), mean weight of sand removed by ants 24 h after release ([4]; S. invicta colony 1, Exp. 3, 50.00 ppm): 0.04 (0.004)* g
Sand removed (SE), mean weight of sand removed by ants 24 h after release ([4]; S. invicta colony 1, Exp. 3, 100.00 ppm): 0.02 (0.008)* g
Sand removed (SE), mean weight of sand removed by ants 24 h after release ([4]; S. invicta colony 1, Exp. 3, 150.00 ppm): 0.03 (0.007)* g
Sand removed (SE), mean weight of sand removed by ants 24 h after release ([4]; S. invicta colony 2, Exp. 4, 0.75 ppm): 0.32 (0.16) g
Sand removed (SE), mean weight of sand removed by ants 24 h after release ([4]; S. invicta colony 2, Exp. 4, 1.50 ppm): 0.32 (0.15) g
Sand removed (SE), mean weight of sand removed by ants 24 h after release ([4]; S. invicta colony 2, Exp. 4, 3.15 ppm): 0.36 (0.11) g
Sand removed (SE), mean weight of sand removed by ants 24 h after release ([4]; S. invicta colony 2, Exp. 5, 6.25 ppm): 0.24 (0.21) g
Sand removed (SE), mean weight of sand removed by ants 24 h after release ([4]; S. invicta colony 2, Exp. 5, 12.50 ppm): 0.45 (0.18) g
Sand removed (SE), mean weight of sand removed by ants 24 h after release ([4]; S. invicta colony 2, Exp. 5, 25.00 ppm): 0.02 (0.01) g
Sand removed (SE), mean weight of sand removed by ants 24 h after release ([4]; S. invicta colony 2, Exp. 6, 50.00 ppm): 0.02 (0.007)* g
Sand removed (SE), mean weight of sand removed by ants 24 h after release ([4]; S. invicta colony 2, Exp. 6, 100.00 ppm): 0.08 (0.06)* g
Sand removed (SE), mean weight of sand removed by ants 24 h after release ([4]; S. invicta colony 2, Exp. 6, 150.00 ppm): 0.07 (0.03)* g
concentration at which significant repellency was shown ([4]; S. invicta, two colonies, in sand, 24 h): ≥ 50.00 ppm
